# Source: patent publication US12213959B2, “Use of 3-O-sulfamoyloxy-7β-methyl-d-homo-6-oxaestra-1,3,5(10),8(9)-tetraen-17a-one to treat breast cancer” (priority 2018, dated 2025)
# Several values for one entry are separate records, joined by “and”; a condition that tells them apart may be missing. Equal entries are not always repeated. Marks after values point to notes of the source that are not given here.
# Tested on: breast tumours in FBV/N female mice, transgenic for HER-2/neu
# Assay: Antitumour activity on breast tumours of HER-2/neu transgenic mice
# Type: in vivo
# Conditions: for antitumour activity compared with Tamoxifen: FVB mice transgenic for HER-2/neu with breast tumours; for Average tumor volume, % of change to the initial value / Average total tumour volume, % of change to the initial value: Day 28 vs Day 0; for Absolute number of new tumours / frequency of stabilisations of tumours present at initiation of treatment / volume of new tumours, less than the control (Control-2) value: end of observation
# Method: The study was carried out on female FVB mice transgenic for HER-2/neu of the conventional category, the strain being obtained from the mouse bank Charles River Laboratories (Italy).
# Duration of the administration course was 27-28 days.
# The control groups were given the olive oil (placebo).
# The macroscopically detectable tumor nodes were measured in the animals once per week during the weighing process.
# [1] = medicament 2 mg/kg daily i.g., Day 0
# [2] = medicament 2 mg/kg daily i.g., Day 7
# [3] = medicament 2 mg/kg daily i.g., Day 14
# [4] = medicament 2 mg/kg daily i.g., Day 21
# [5] = medicament 2 mg/kg daily i.g., Day 28
# [6] = medicament 20 mg/kg daily i.g., Day 0
# [7] = medicament 20 mg/kg daily i.g., Day 7
# [8] = medicament 20 mg/kg daily i.g., Day 14
# [9] = medicament 20 mg/kg daily i.g., Day 21
# [10] = medicament 20 mg/kg daily i.g., Day 28
# [11] = medicament 20 mg/kg, vs Control-2, Day 0
# [12] = medicament 20 mg/kg, vs Control-2, Day 7
# [13] = medicament 20 mg/kg, vs Control-2, Day 14
# [14] = medicament 20 mg/kg, vs Control-2, Day 21
# [15] = medicament 20 mg/kg, vs Control-2, Day 28
# [16] = medicament 100 mg/kg daily i.g., Day 0
# [17] = medicament 100 mg/kg daily i.g., Day 7
# [18] = medicament 100 mg/kg daily i.g., Day 14
# [19] = medicament 100 mg/kg daily i.g., Day 21
# [20] = medicament 100 mg/kg daily i.g., Day 28
# [21] = medicament 100 mg/kg daily i.g.
# [22] = medicament 100 mg/kg, vs Control-2, Day 0
# [23] = medicament 100 mg/kg, vs Control-2, Day 7
# [24] = medicament 100 mg/kg, vs Control-2, Day 14
# [25] = medicament 100 mg/kg, vs Control-2, Day 21
# [26] = medicament 100 mg/kg, vs Control-2, Day 28
compound,measurement,setting,value
"C[C@H]1Oc2cc(OS(N)(=O)=O)ccc2C2=C1[C@@H]1CCCC(=O)[C@@]1(C)CC2 [medicament, 3-O-sulfamoyloxy-7β-methyl-O-homo-6-oxaestra-1,3,5(10),8(9)-tetraen]",antitumour activity compared with Tamoxifen,,"not lower than that of the reference durg, Tamoxifen"
same,antitumour activity compared with Tamoxifen,listed as agent,more effectively than clinically used Tamoxifen
same,antitumour effect on the model,"dose range 2.0, 20.0 and 100.0 mg/kg",no pronounced antitumour effect
same,Average volume of new tumours at the end of the observation period,medicament 2 mg/kg,0.33 cm^3
same,effect on frequency of stabilisations or volume of newly developing tumours,medicament 2.0 mg/kg,had no effect
same,relative change in the total volume of tumours versus control values,medicament 2.0 mg/kg,greater than the control values
same,Average volume of tumors existing at the beginning of the experiment (M),[1],0.27 cm^3
same,Relative change of the average total volume of tumours to that of Day −1 (M),[1],0%
same,Average total volume of tumours in mice (M),"medicament 2.0 mg/kg daily i.g., Day 0",1.24 cm^3
same,Average volume of tumors existing at the beginning of the experiment (M),[2],0.42 cm^3
same,Relative change of the average total volume of tumours to that of Day −1 (M),[2],59%
same,Average total volume of tumours in mice (M),"medicament 2.0 mg/kg daily i.g., Day 7",1.91 cm^3
same,Average volume of tumors existing at the beginning of the experiment (M),[3],0.6 cm^3
same,Relative change of the average total volume of tumours to that of Day −1 (M),[3],131%
same,Average total volume of tumours in mice (M),"medicament 2.0 mg/kg daily i.g., Day 14",2.71 cm^3
same,Average volume of tumors existing at the beginning of the experiment (M),[4],0.77 cm^3
same,Relative change of the average total volume of tumours to that of Day −1 (M),[4],210%
same,Average total volume of tumours in mice (M),"medicament 2.0 mg/kg daily i.g., Day 21",3.50* cm^3
same,Average volume of tumors existing at the beginning of the experiment (M),[5],1.11 cm^3
same,Relative change of the average total volume of tumours to that of Day −1 (M),[5],347*** %
same,Average total volume of tumours in mice (M),"medicament 2.0 mg/kg daily i.g., Day 28",5.04 cm^3
same,"Average tumor volume, % of change to the initial value",medicament 2 mg/kg daily i.g.,311%
same,"Average total tumour volume, % of change to the initial value",medicament 2.0 mg/kg daily i.g.,307%
same,Absolute number of new tumours,medicament 2 mg/kg,30
same,frequency of stabilisations of tumours present at initiation of treatment,medicament 2 mg/kg,5%
same,TGI (average tumor volume),"medicament 2 mg/kg, vs Control-3, Day 0",29%
same,TGI (average total tumour volume),"medicament 2.0 mg/kg, vs Control-3, Day 0",45%
same,TGI (average tumor volume),"medicament 2 mg/kg, vs Control-3, Day 7",16%
same,TGI (average total tumour volume),"medicament 2.0 mg/kg, vs Control-3, Day 7",37%
same,TGI (average tumor volume),"medicament 2 mg/kg, vs Control-3, Day 14",14%
same,TGI (average total tumour volume),"medicament 2.0 mg/kg, vs Control-3, Day 14",35%
same,TGI (average tumor volume),"medicament 2 mg/kg, vs Control-3, Day 21",9%
same,TGI (average total tumour volume),"medicament 2.0 mg/kg, vs Control-3, Day 21",31%
same,TGI (average tumor volume),"medicament 2 mg/kg, vs Control-3, Day 28",−14%
same,TGI (average total tumour volume),"medicament 2.0 mg/kg, vs Control-3, Day 28",13%
same,Average volume of new tumours at the end of the observation period,medicament 20 mg/kg,0.19±0.04 cm^3 and 0.19 cm^3
same,Average total volume of tumours in mice (M),[6],0.41 cm^3
same,Average volume of tumors existing at the beginning of the experiment (M),[6],0.18 cm^3
same,Relative change of the average total volume of tumours to that of Day −1 (M),"medicament 20.0 mg/kg daily i.g., Day 0",0%
same,Average total volume of tumours in mice (M),[7],0.62 cm^3
same,Average volume of tumors existing at the beginning of the experiment (M),[7],0.28 cm^3
same,Relative change of the average total volume of tumours to that of Day −1 (M),"medicament 20.0 mg/kg daily i.g., Day 7",55%
same,Average total volume of tumours in mice (M),[8],0.94 cm^3
same,Average volume of tumors existing at the beginning of the experiment (M),[8],0.43 cm^3
same,Relative change of the average total volume of tumours to that of Day −1 (M),"medicament 20.0 mg/kg daily i.g., Day 14",145%
same,Average total volume of tumours in mice (M),[9],1.18 cm^3
same,Average volume of tumors existing at the beginning of the experiment (M),[9],0.54 cm^3
same,Relative change of the average total volume of tumours to that of Day −1 (M),"medicament 20.0 mg/kg daily i.g., Day 21",209** %
same,Average total volume of tumours in mice (M),[10],1.22 cm^3
same,Average volume of tumors existing at the beginning of the experiment (M),[10],0.55 cm^3
same,Relative change of the average total volume of tumours to that of Day −1 (M),"medicament 20.0 mg/kg daily i.g., Day 28",227*** %
same,"Average total tumour volume, % of change to the initial value",medicament 20 mg/kg daily i.g.,198%
same,"Average tumor volume, % of change to the initial value",medicament 20 mg/kg daily i.g.,206%
same,Absolute number of new tumours,medicament 20 mg/kg,22
same,frequency of stabilisations of tumours present at initiation of treatment,medicament 20 mg/kg,9%
same,"volume of new tumours, less than the control (Control-2) value",medicament 20 mg/kg,32%
same,TGI (average total tumour volume),[11],−116%
same,TGI (average tumor volume),[11],−125%
same,TGI (average total tumour volume),[12],−114%
same,TGI (average tumor volume),[12],−115%
same,TGI (average total tumour volume),[13],−45%
same,TGI (average tumor volume),[13],−54%
same,TGI (average total tumour volume),[14],−19%
same,TGI (average tumor volume),[14],−26%
same,TGI (average total tumour volume),[15],12%
same,TGI (average tumor volume),[15],10%
same,Average volume of new tumours at the end of the observation period,medicament 100 mg/kg,0.18±0.04 cm^3 and 0.18 cm^3
same,Average total volume of tumours in mice (M),[16],0.28 cm^3
same,Average volume of tumors existing at the beginning of the experiment (M),[16],0.13 cm^3
same,Relative change of the average total volume of tumours to that of Day −1 (M),"medicament 100.0 mg/kg daily i.g., Day 0",0%
same,Average total volume of tumours in mice (M),[17],0.41 cm^3
same,Average volume of tumors existing at the beginning of the experiment (M),[17],0.19 cm^3
same,Relative change of the average total volume of tumours to that of Day −1 (M),"medicament 100.0 mg/kg daily i.g., Day 7",42%
same,Average total volume of tumours in mice (M),[18],0.59 cm^3
same,Average volume of tumors existing at the beginning of the experiment (M),[18],0.27 cm^3
same,Relative change of the average total volume of tumours to that of Day −1 (M),"medicament 100.0 mg/kg daily i.g., Day 14",89* %
same,Average total volume of tumours in mice (M),[19],0.81 cm^3
same,Average volume of tumors existing at the beginning of the experiment (M),[19],0.37 cm^3
same,Relative change of the average total volume of tumours to that of Day −1 (M),"medicament 100.0 mg/kg daily i.g., Day 21",177*** %
same,Average total volume of tumours in mice (M),[20],0.97* cm^3
same,Average volume of tumors existing at the beginning of the experiment (M),[20],0.44 cm^3
same,Relative change of the average total volume of tumours to that of Day −1 (M),"medicament 100.0 mg/kg daily i.g., Day 28",269*** %
same,"Average total tumour volume, % of change to the initial value",[21],246%
same,"Average tumor volume, % of change to the initial value",[21],238%
same,Absolute number of new tumours,medicament 100 mg/kg,19
same,frequency of stabilisations of tumours present at initiation of treatment,medicament 100 mg/kg,9%
same,"volume of new tumours, less than the control (Control-2) value",medicament 100 mg/kg,36%
same,TGI (average total tumour volume),[22],−47%
same,TGI (average tumor volume),[22],−63%
same,TGI (average total tumour volume),[23],−41%
same,TGI (average tumor volume),[23],−46%
same,TGI (average total tumour volume),[24],9%
same,TGI (average tumor volume),[24],4%
same,TGI (average total tumour volume),[25],18%
same,TGI (average tumor volume),[25],14%
same,TGI (average total tumour volume),[26],30%
same,TGI (average tumor volume),[26],28%
same,relative change in the total volume of tumours versus control groups,medicament 20 and 100 mg/kg,statistically significantly lower
